Values quoted from earlier work, collected in patent US20020155083A1, “Dermal regeneration methods and compositions related thereto in conjunction with laser phototherapy, microdermabrasion and epidermabrasion” (priority 2001, published 2002).
Ends that are not written are not given here.

Tests used:
[1] = test system: BCO, Candida, or Cryptococcus; settings: immunosuppressed mice infected with BCO
interferon (IFN) = settings: mouse, in vivo
Candida albicans = settings: mice, injection
[2] = test system: C. albicans, Listeria monocytogenes, Pseudomonas aeruginosa, and Serratia marescens; settings: 5-fluorouracil (5FU)- or morphine-immunosuppressed mice, injection
influenza virus = settings: in combination with amantadine and interferon; mice infected with the influenza virus

For “thymosin α1 (SDAAVDTSSEITTKDLKEKKEVVEEAEN; ends and bridges not checked; UniProt P06454 2-29, looked up) [Tα1]”, which survival rate [1] is on record?
The survival rate was “increased survival rate”.

And the “amount of interferon (IFN) produced” value (interferon (IFN))?
The value was “significant rise”.

And the “resistance to infection with Candida albicans” value (Candida albicans)?
Its value is “increased resistance”.

What about the “protection against opportunistic infections” value [2] of the same substance?
Its value is “protect”.

And the long term survival (influenza virus)?
Its long term survival is “significantly increase”.

And the “viral titers in the lungs” value (influenza virus)?
The value was “reduce viral titers”.
